Measured values published in patent US9040663B2, “Melanocortin receptor-specific peptides” (AstraZeneca AB, priority 2009, dated 2015).
Read-outs that look alike come from different tables or passages of the source. Positions of bridges follow the written chain, without caps; N, C: chain ends. Non-standard residues stand in square brackets, D forms with d. Residues, ends and D or L forms follow the SMILES beside them. dPhe(4-CN) = N#Cc1ccc(C[C@@H](N)C(=O)O)cc1

Columns and labels:
hMC4-R [1] = target: T1, hMC4-R (Homo sapiens (Human), UniProt P32245); assay: Competitive inhibition binding assay using [I125]-NDP-α-MSH, hMC4-R; settings: membranes of HEK-293 cells expressing recombinant hMC4-R, read-out: MC4-R Ki
Experimental: 7.1 Competitive Inhibition Assay using [I^125]-NDP-α-MSH.
A competitive inhibition binding assay was performed for exemplified peptides according to the invention using membrane homogenates prepared from HEK-293 cells that express recombinant hMC4-R, hMC3-R, or hMC5-R, and from B-16 mouse melanoma cells (containing endogenous MC1-R). In some instances, HEK-293 cells that express recombinant hMC1-R were employed. Assays were performed in 96 well GF/B Millipore multiscreen filtration plates (MAFB NOB10) pre-coated with 0.5% bovine serum albumin (Fraction V). Membrane homogenates were incubated with 0.2 nM (for hMC4-R) 0.4 nM (for MC3-R and MC5-R) or 0.1 nM (for mouse B16 MC1-R or hMC1-R) [I^125]-NDP-α-MSH (Perkin Elmer) and increasing concentrations of test peptides of the present invention in buffer containing 25 mM HEPES buffer (pH 7.5) with 100 mM NaCl, 2 mM CaCl2, 2 mM MgCl2, 0.3 mM 1,10-phenanthroline, and 0.2% bovine serum albumin. After incubation for 60 minutes at 37° C., the assay mixture was filtered and the membranes washed three times with ice-cold buffer. Filters were dried and counted in a gamma counter for bound radioactivity. […] Maximal specific binding (100%) was defined as the difference in radioactivity (cpm) bound to cell membranes in the absence and presence of 1 μM NDP-α-MSH. […] Each assay was conducted in triplicate and the actual mean values are described, with results less than 0% reported as 0%. Ki values for test peptides of the present invention were determined using Graph-Pad Prism® curve-fitting software.

hMC4-R [2] = target: T1, hMC4-R; assay: High and low density hMC4-R functional assay (cAMP, HEK293-T-REx-MC4-R cells); type: cell-based; settings: for Emax: NDP-α-MSH = 100%, read-out: Intrinsic Activity (%)
Experimental: The cells were then dispensed into 96-well plates (BD 353916) in 198 μL (about 5×10^4) cells/well and incubated for 10 minutes at 37° C. The compound to be tested was diluted with DMSO to a final concentration of 1 mM. […] 120 μL of the 1 mM compound stock was pipetted in the second column on the plate. […] All assay samples were run in duplicate (i.e. each sample was in two low dox and two high dox plates, respectively). The plates were gently shaken and incubated for 15 minutes at 37° C.

[3] = 0.1 ng/mL Doxycycline (low density hMC4-R system)
[4] = 10 ng/mL Doxycycline (high density hMC4-R system)

T1 sequence (P32245 whole entry): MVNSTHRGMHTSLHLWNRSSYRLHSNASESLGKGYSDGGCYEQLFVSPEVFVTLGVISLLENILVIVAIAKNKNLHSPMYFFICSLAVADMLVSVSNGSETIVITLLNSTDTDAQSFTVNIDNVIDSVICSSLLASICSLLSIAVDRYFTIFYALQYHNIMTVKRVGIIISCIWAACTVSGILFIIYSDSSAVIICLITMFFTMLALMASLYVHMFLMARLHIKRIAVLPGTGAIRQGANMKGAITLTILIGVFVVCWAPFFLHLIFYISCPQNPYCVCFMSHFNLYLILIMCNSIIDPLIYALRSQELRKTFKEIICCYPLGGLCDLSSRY

Row | Ki (hMC4-R [1]) [nM] | EC50 (hMC4-R [2]; [3]) [nM] | Emax (hMC4-R [2]; [3]) [%] | EC50 (hMC4-R [2]; [4]) [nM] | Emax (hMC4-R [2]; [4]) [%] | SMILES
1 | 10 | 2 | 79 | 0.095 | 95 | CC(=O)N[C@H](CCCNC(=N)N)C(=O)N[C@H]1CC(=O)NCCCC[C@@H](C(N)=O)NC(=O)[C@H](Cc2c[nH]c3ccccc23)NC(=O)[C@H](CCCNC(=N)N)NC(=O)[C@@H](Cc2ccccc2F)NC(=O)[C@H](CCC(N)=O)NC1=O [Example 82, Ac-D-Arg-cyclo(Asp-Gln-D-Phe(2-F)-Arg-Trp-Lys)-NH2]
2 | 6 | 0.75 | 78 | 0.075 | 94 | CC(=O)N[C@H](CCCNC(=N)N)C(=O)N[C@H]1CC(=O)NCCCC[C@@H](C(N)=O)NC(=O)[C@H](Cc2c[nH]c3ccccc23)NC(=O)[C@H](CCCNC(=N)N)NC(=O)[C@@H](Cc2ccc(F)cc2)NC(=O)[C@H](CCC(N)=O)NC1=O [Example 83, Ac-D-Arg-cyclo(Asp-Gln-D-Phe(4-F)-Arg-Trp-Lys)-NH2]
3 | 3 | 1 | 64 | 0.065 | 100 | COc1cccc(C[C@H]2NC(=O)[C@H](CCN)NC(=O)[C@@H](NC(=O)[C@H](CCCNC(=N)N)NC(C)=O)CCC(=O)NCCC[C@@H](C(N)=O)NC(=O)[C@H](Cc3c[nH]c4ccccc34)NC(=O)[C@H](CCCNC(=N)N)NC2=O)c1 [Example 87, Ac-Arg-cyclo(Glu-Dab-D-Phe(3-OMe)-Arg-Trp-Orn)-NH2]
4 | 5 | 3 | 15 | 0.35 | 89 | CC(=O)N[C@@H](CCCNC(=N)N)C(=O)N[C@H]1CCC(=O)NCCC[C@@H](C(N)=O)NC(=O)[C@H](Cc2c[nH]c3ccccc23)NC(=O)[C@H](CCCNC(=N)N)NC(=O)[C@@H](Cc2ccccc2Cl)NC(=O)[C@@H]2CCCN2C1=O [Example 88, Ac-Arg-cyclo(Glu-Pro-D-Phe(2-Cl)-Arg-Trp-Orn)-NH2]
5 | 48 | – | 6 | – | 87 | CC(=O)N[C@@H](CCCNC(=N)N)C(=O)N[C@H]1CC(=O)NCCCC[C@@H](C(N)=O)NC(=O)[C@H](Cc2c[nH]c3ccccc23)NC(=O)[C@H](CCCNC(=N)N)NC(=O)[C@@H](Cc2ccc(C#N)cc2)NC(=O)[C@H](CC(N)=O)NC1=O [Example 89, Ac-Arg-cyclo(Asp-Asn-D-Phe(4-CN)-Arg-Trp-Lys)-NH2] (Ac-RDN[dPhe(4-CN)]RWK-NH2; lactam 2-7)
6 | 5 | 4 | 31 | – | 96 | CC(=O)N[C@@H](CCCNC(=N)N)C(=O)N[C@H]1CC(=O)NCCCC[C@@H](C(N)=O)NC(=O)[C@H](Cc2c[nH]c3ccccc23)NC(=O)[C@H](CCCNC(=N)N)NC(=O)[C@@H](Cc2ccc(C#N)cc2)NC(=O)[C@H](CCC(N)=O)NC1=O [Example 90, Ac-Arg-cyclo(Asp-Gln-D-Phe(4-CN)-Arg-Trp-Lys)-NH2]
7 | 4 | 1 | 18 | 0.265 | 96 | CC(=O)N[C@@H](CCCNC(=N)N)C(=O)N[C@H]1CCCNC(=O)CC[C@@H](C(N)=O)NC(=O)[C@H](Cc2c[nH]c3ccccc23)NC(=O)[C@H](CCCNC(=N)N)NC(=O)[C@@H](Cc2ccc(C#N)cc2)NC(=O)[C@H](CC(N)=O)NC1=O [Example 91, Ac-Arg-cyclo(Orn-Asn-D-Phe(4-CN)-Arg-Trp-Glu)-NH2]
8 | 2 | 0.1 | 81 | – | 89 | CC(=O)N[C@@H](CCCNC(=N)N)C(=O)N[C@H]1CCC(=O)NCCC[C@@H](C(N)=O)NC(=O)[C@H](Cc2c[nH]c3ccccc23)NC(=O)[C@H](CCCNC(=N)N)NC(=O)[C@@H](Cc2ccc(F)cc2)NC(=O)[C@H](CCC(N)=O)NC1=O [Example 92, Ac-Arg-cyclo(Glu-Gln-D-Phe(4-F)-Arg-Trp-Orn)-NH2]
9 | 1 | 0.3 | 44 | 0.17 | 97 | CC(=O)N[C@@H](CCCNC(=N)N)C(=O)N[C@H]1CCCCNC(=O)C[C@@H](C(N)=O)NC(=O)[C@H](Cc2c[nH]c3ccccc23)NC(=O)[C@H](CCCNC(=N)N)NC(=O)[C@@H](Cc2ccc(C#N)cc2)NC(=O)[C@H](CCC(N)=O)NC1=O [Example 93, Ac-Arg-cyclo(Lys-Gln-D-Phe(4-CN)-Arg-Trp-Asp)-NH2] (Ac-RKQ[dPhe(4-CN)]RWD-NH2; lactam 2-7)
10 | 3 | 1 | 42 | 0.125 | 100 | CC(=O)N[C@@H](CCCNC(=N)N)C(=O)N[C@H]1CCC(=O)NCCC[C@@H](C(N)=O)NC(=O)[C@H](Cc2c[nH]c3ccccc23)NC(=O)[C@H](CCCNC(=N)N)NC(=O)[C@@H](Cc2cc(F)c(F)c(F)c2)NC(=O)[C@H](CC(N)=O)NC1=O [Example 95, Ac-Arg-cyclo(Glu-Asn-D-Phe(3,4,5-triF)-Arg-Trp-Orn)-NH2]

More lines, now with the values behind:

Row | SMILES | Ki (hMC4-R [1]) [nM] | EC50 (hMC4-R [2]; [3]) [nM] | Emax (hMC4-R [2]; [3]) [%] | EC50 (hMC4-R [2]; [4]) [nM] | Emax (hMC4-R [2]; [4]) [%]
11 | CC(=O)N[C@@H](CCCNC(=N)N)C(=O)N[C@H]1CCC(=O)NCCC[C@@H](C(N)=O)NC(=O)[C@H](Cc2c[nH]c3ccccc23)NC(=O)[C@H](CCCNC(=N)N)NC(=O)[C@@H](Cc2ccccc2F)NC(=O)[C@H](CCC(N)=O)NC1=O [Example 59, Ac-Arg-cyclo(Glu-Gln-D-Phe(2-F)-Arg-Trp-Orn)-NH2] | 7 | 0.6 | 90 | 0.1 | 98
12 | CC(=O)N[C@@H](CCCNC(=N)N)C(=O)N[C@H]1CCC(=O)NCCC[C@@H](C(N)=O)NC(=O)[C@H](Cc2c[nH]c3ccccc23)NC(=O)[C@H](CCCNC(=N)N)NC(=O)[C@@H](Cc2cccc(Cl)c2)NC(=O)[C@H](CN)NC1=O [Example 61, Ac-Arg-cyclo(Glu-Dap-D-Phe(3-Cl)-Arg-Trp-Orn)-NH2] | 4 | – | 6 | 0.95 | 89
13 | CC(=O)N[C@@H](CCCNC(=N)N)C(=O)N[C@H]1CCC(=O)NCCC[C@@H](C(N)=O)NC(=O)[C@H](Cc2c[nH]c3ccccc23)NC(=O)[C@H](CCCNC(=N)N)NC(=O)[C@@H](Cc2ccccc2Cl)NC(=O)[C@H](CN)NC1=O [Example 62, Ac-Arg-cyclo(Glu-Dap-D-Phe(2-Cl)-Arg-Trp-Orn)-NH2] | 9 | 16 | 23 | 0.47 | 84
14 | CC(=O)N[C@@H](CCCNC(=N)N)C(=O)N[C@H]1CCCNC(=O)CC[C@@H](C(N)=O)NC(=O)[C@H](Cc2c[nH]c3ccccc23)NC(=O)[C@H](CCCNC(=N)N)NC(=O)[C@@H](Cc2ccc(F)cc2)NC(=O)[C@H](CC(N)=O)NC1=O [Example 70, Ac-Arg-cyclo(Orn-Asn-D-Phe(4-F)-Arg-Trp-Glu)-NH2] | 3 | 0.4 | 64 | 0.1 | 91
15 | CC(=O)N[C@@H](CCCNC(=N)N)C(=O)N[C@H]1CCCNC(=O)CC[C@@H](C(N)=O)NC(=O)[C@H](Cc2c[nH]c3ccccc23)NC(=O)[C@H](CCCNC(=N)N)NC(=O)[C@@H](Cc2cccc(C)c2)NC(=O)[C@H](CC(N)=O)NC1=O [Example 72, Ac-Arg-cyclo(Orn-Asn-D-Phe(3-Me)-Arg-Trp-Glu)-NH2] | 4 | 3 | 11 | 0.35 | 84
16 | CC(=O)N[C@@H](CCCNC(=N)N)C(=O)N[C@H]1CCC(=O)NCCC[C@@H](C(N)=O)NC(=O)[C@H](Cc2c[nH]c3ccccc23)NC(=O)[C@H](CCCNC(=N)N)NC(=O)[C@@H](Cc2ccccc2C)NC(=O)[C@H](CC(N)=O)NC1=O [Example 73, Ac-Arg-cyclo(Glu-Asn-D-Phe(2-Me)-Arg-Trp-Orn)-NH2] | 4 | – | 86 | – | 102
17 | CC(=O)N[C@@H](CCCNC(=N)N)C(=O)N[C@H]1CCCNC(=O)CC[C@@H](C(N)=O)NC(=O)[C@H](Cc2c[nH]c3ccccc23)NC(=O)[C@H](CCCNC(=N)N)NC(=O)[C@@H](Cc2cc(F)cc(F)c2)NC(=O)[C@H](CC(N)=O)NC1=O [Example 77, Ac-Arg-cyclo(Orn-Asn-D-Phe(3,5-diF)-Arg-Trp-Glu)-NH2] | 8 | 3 | 34 | – | 80
18 | CC(=O)N[C@H](CCCNC(=N)N)C(=O)N[C@H]1CC(=O)NCCCC[C@@H](C(N)=O)NC(=O)[C@H](Cc2c[nH]c3ccccc23)NC(=O)[C@H](CCCNC(=N)N)NC(=O)[C@@H](Cc2ccc(F)c(F)c2)NC(=O)[C@H](CCC(N)=O)NC1=O [Example 78, Ac-D-Arg-cyclo(Asp-Gln-D-Phe(3,4-diF)-Arg-Trp-Lys)-NH2] | 8 | 2 | 48 | 0.2 | 89
